Assay results published in patent US11987586B1 (TAKEDA PHARMACEUTICAL COMPANY LIMITED, priority 2022, dated 2024).

Assays:
[1] = system: cynomolgus monkeys; experiment: Evaluation of wake-promoting effects in cynomolgus monkeys (EEG, EMG, locomotor activity); type: in vivo, cynomolgus monkey; conditions: Macaca fascicularis, po, p.o., at zeitgeber time 12, 4 hours after administration, male cynomolgus monkeys, read-out: Wakefulness time (% of vehicle treatment) (Mean, n = 2-4)
Description: The wake-promoting effects were evaluated by measuring the electroencephalogram (EEG), electromyogram (EMG) and locomotor activity in cynomolgus monkeys. Under isoflurane anesthesia (0.5-5%, Pfizer Japan Inc., Tokyo, Japan), male cynomolgus monkeys (2-3 years old, Hamri Co., Ltd., Ibaraki, Japan) were surgically implanted with radio-telemetry transmitters (L03-F3, Data Sciences International Inc., MN, USA). The two EEG electrodes were stereotaxically positioned at the parietal area and secured to the cranium with stainless-steel screws in contact with the dura. Bilateral EMG electrodes were implanted into the back cervical muscles. After at least a 1-month recovery period in home cages, the monkeys were habituated to the recording chamber (an acrylic cage 60W×55D×75H (cm)) located in a soundproof and electrically shielded room by the time animals sleep sufficiently in the experimental room. Cortical EEG, EMG and locomotor activity were recorded using the telemetry system (PhysioTel Digital telemetry platform, Data Sciences International Inc.). The signals were semi-automatically scored in 20-second epochs by a sleep scoring system (SleepSign, Kissei Comtec Co., Ltd., Nagano, Japan).
Test compound (1 or 3 mg/kg) suspended in 0.5% methylcellulose aqueous solution or vehicle (i.e., 0.5% methylcellulose aqueous solution) was administered orally (p.o.) to monkeys at zeitgeber time 12 in a volume of 5 mL/kg body weight with a pretest-posttest design (n=2-4), and then EEG, EMG and locomotor activity were recorded for 4 hours after administration. The time spent in wakefulness for 4 hours after administration (% of vehicle treatment) was calculated by using SleepSign.

[2] = biological target: T1, human OX2 receptor (Homo sapiens, UniProt O43614); experiment: Measurement of orexin type 2 receptor agonist activity (calcium fluorescence, Fluo-4, FDSS); type: cell-based; conditions: 3 uM test compound; CHO cells expressing human OX2 receptor; DMSO = 0%, 10 nM orexin A (human) = 100%
T1 construct: expressed in transfected cells
T1 sequence (O43614 1-444): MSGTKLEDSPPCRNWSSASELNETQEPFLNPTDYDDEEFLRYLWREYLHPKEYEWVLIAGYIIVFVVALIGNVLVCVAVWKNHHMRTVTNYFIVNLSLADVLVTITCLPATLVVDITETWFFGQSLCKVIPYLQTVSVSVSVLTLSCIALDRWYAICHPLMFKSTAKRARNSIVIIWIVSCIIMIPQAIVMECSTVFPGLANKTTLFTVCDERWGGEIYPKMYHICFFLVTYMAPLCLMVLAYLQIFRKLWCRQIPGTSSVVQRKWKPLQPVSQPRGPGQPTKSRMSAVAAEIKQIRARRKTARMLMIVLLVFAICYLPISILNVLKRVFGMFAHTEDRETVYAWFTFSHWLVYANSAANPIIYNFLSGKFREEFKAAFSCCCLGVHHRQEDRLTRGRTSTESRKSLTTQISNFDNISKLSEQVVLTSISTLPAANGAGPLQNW
In short: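 Agonist activity (%) was normalised to the response to 10 nM final human orexin A (100%) and to the DMSO vehicle (0%). The response was measured as the Fluo-4 calcium signal, read kinetically over 1 min 40 s after compound addition to Fluo-4/probenecid-loaded stable CHO-K1 clones expressing human OX2 (aa 1-444).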

SMILES | OX2R agonist activity (3 uM, %) [2] [%] | response vs control in vivo at 1 mg/kg [1] [%] | response vs control in vivo at 3 mg/kg ([1]; 3 mg/kg) [%]
CCS(=O)(=O)N[C@@H]1CN2C(=O)N(c3noc4cccc(-c5c(F)cc(F)cc5F)c34)C[C@@H]2C1(F)F [Example 24, N-{(6R,7aR)-7,7-Difluoro-3-oxo-2-[4-(2,4,6-trifluorophenyl)-1,2-benzoxazol-3-yl]hexahydro-1H-pyrrolo[1,2-c]imidazol-6-yl}ethanesulfonamide] | 104 | 393 | –
CS(=O)(=O)N[C@@H]1CN2C(=O)N(c3noc4cccc(-c5c(F)cc(F)cc5F)c34)C[C@@H]2C1(F)F [Example 71, N-{(6R,7aR)-7,7-Difluoro-3-oxo-2-[4-(2,4,6-trifluorophenyl)-1,2-benzoxazol-3-yl]hexahydro-1H-pyrrolo[1,2-c]imidazol-6-yl}methanesulfonamide] | 97 | 703 | –
CCS(=O)(=O)N[C@H]1C[C@H]2CN(c3noc4cc(Cl)cc(-c5c(F)cccc5F)c34)C(=O)N2C1 [Example 50, N-{(6S,7aS)-2-[6-Chloro-4-(2,6-difluorophenyl)-1,2-benzoxazol-3-yl]-3-oxohexahydro-1H-pyrrolo[1,2-c]imidazol-6-yl}ethanesulfonamide] | 103 | 176 | –
CS(=O)(=O)N[C@@H]1Cn2c(cn(-c3noc4cccc(-c5c(F)cc(F)cc5F)c34)c2=O)C1(F)F [Example 16, N-{(6R)-7,7-Difluoro-3-oxo-2-[4-(2,4,6-trifluorophenyl)-1,2-benzoxazol-3-yl]-2,5,6,7-tetrahydro-3H-pyrrolo[1,2-c]imidazol-6-yl}methanesulfonamide] | 107 | 546 | –
CCS(=O)(=O)N[C@H]1C[C@H]2CN(c3noc4cccc(-c5c(F)cccc5F)c34)C(=O)N2C1 [Example 1, N-{(6S,7aS)-2-[4-(2,6-Difluorophenyl)-1,2-benzoxazol-3-yl]-3-oxohexahydro-1H-pyrrolo[1,2-c]imidazol-6-yl}ethanesulfonamide] | 104 | – | 383

Second part, led by results:

OX2R agonist activity (3 uM, %) [2] [%] | SMILES | response vs control in vivo at 1 mg/kg [1] [%] | response vs control in vivo at 3 mg/kg ([1]; 3 mg/kg) [%]
109 | CS(=O)(=O)N[C@@H]1CN2C(=O)N(c3noc4cc(F)c(F)c(-c5c(F)cc(F)cc5F)c34)CC[C@@H]2C1(F)F [Example 243, N-{(4aR,6R)-2-[5,6-difluoro-4-(2,4,6-trifluorophenyl)-1,2-benzoxazol-3-yl]-5,5-difluoro-1-oxooctahydropyrrolo[1,2-c]pyrimidin-6-yl}methanesulfonamide] | 618 | –
100 | CS(=O)(=O)N[C@@H]1Cn2c(cn(-c3noc4ccc(F)c(-c5c(F)cc(F)cc5F)c34)c2=O)C1(F)F [Example 77, N-{(6R)-7,7-Difluoro-2-[5-fluoro-4-(2,4,6-trifluorophenyl)-1,2-benzoxazol-3-yl]-3-oxo-2,5,6,7-tetrahydro-3H-pyrrolo[1,2-c]imidazol-6-yl}methanesulfonamide] | 645 | –
95 | CS(=O)(=O)N[C@@H]1CN2C(=O)N(c3noc4cc(F)cc(-c5c(F)cc(F)cc5F)c34)C[C@@H]2C1(F)F [Example 149, N-{(6R,7aR)-7,7-Difluoro-2-[6-fluoro-4-(2,4,6-trifluorophenyl)-1,2-benzoxazol-3-yl]-3-oxohexahydro-1H-pyrrolo[1,2-c]imidazol-6-yl}methanesulfonamide] | 731 | –
107 | CS(=O)(=O)N[C@@H]1CN2C(=O)N(c3noc4ccc(F)c(-c5c(F)cccc5F)c34)CC[C@@H]2C1(F)F [Example 265, N-{(4aR,6R)-2-[4-(2,6-difluorophenyl)-5-fluoro-1,2-benzoxazol-3-yl]-5,5-difluoro-1-oxooctahydropyrrolo[1,2-c]pyrimidin-6-yl}methanesulfonamide] | 472 | –
105 | CCS(=O)(=O)N[C@@H]1Cn2c(cn(-c3noc4cc(F)cc(-c5c(F)cccc5F)c34)c2=O)C1(F)F [Example 282, N-{(6R)-2-[4-(2,6-difluorophenyl)-6-fluoro-1,2-benzoxazol-3-yl]-7,7-difluoro-3-oxo-2,5,6,7-tetrahydro-3H-pyrrolo[1,2-c]imidazol-6-yl}ethanesulfonamide] | 418 | –
